From publication PMC5644030 (Biochemistry, 2017)

Legend:
Rv3404c [1] = target: T1, Rv3404c (Mycobacterium tuberculosis, UniProt P9WKZ3)
Rv3404c [2] = target: T1, Rv3404c; remark: listed apart in the source

T1 sequence (P9WKZ3 whole entry): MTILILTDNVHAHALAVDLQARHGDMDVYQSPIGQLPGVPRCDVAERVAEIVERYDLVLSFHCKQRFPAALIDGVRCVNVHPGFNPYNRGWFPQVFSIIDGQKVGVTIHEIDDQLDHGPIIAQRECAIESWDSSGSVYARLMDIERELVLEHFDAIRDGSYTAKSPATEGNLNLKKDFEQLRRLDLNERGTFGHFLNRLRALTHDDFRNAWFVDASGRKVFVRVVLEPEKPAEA

Structure (SMILES)	X-ray crystallography, 1.6 Å ternary complex (Rv3404c [1])	HPLC and ESI mass spectrometry of product (Rv3404c [2])
Nc1nc2c(c(=O)[nH]1)N(C=O)[C@@H](CNc1ccc(C(=O)N[C@@H](CCC(=O)O)C(=O)O)cc1)CN2 [N5-formyl-THF]	The structure of Rv3404c in complex with N5-formyltetrahydrofolate (N5-formyl-THF) and dTDP-Qui4N was determined	–
Nc1nc2c(c(=O)[nH]1)N[C@@H](CN(C=O)c1ccc(C(=O)N[C@@H](CCC(=O)O)C(=O)O)cc1)CN2 [N10-formyl-THF]	–	Upon incubation of dTDP-Qui4N and N10-formyl-THF with Rv3404c, a peak was observed
